{"source": "patent US20260165973A1", "about": "(MERCK SHARP & DOHME LLC, priority 2023, published 2026)", "key": {"[1]": {"assay": "Solubility / solubilization assessment of doravirine and islatravir", "assay_type": "physicochemical", "settings": "islatravir: in water and dissolution media", "source_text": "Details are provided in Example 5.\nThe manufacturing process includes standard unit operations and equipment for tablet production."}, "[2]": {"settings": "open container at 5° C./ambient RH, 30° C./65% RH, 40° C./75% RH, and 60° C./ambient RH; cited from earlier work"}}, "data": [{"smiles": "C#C[C@@]1(CO)O[C@H](n2cnc3c(N)nc(F)nc32)C[C@H]1O", "note": "[islatravir, (2S,3R,5S)-5-(6-amino-2-fluoro-9H-purin-9-yl)-2-ethynyl-2-(hydroxymethyl)tetrahydrofuran-3-ol]", "values": [{"measurement": "Solubility", "setting": "[1]", "result": "high solubility"}]}, {"smiles": "Cn1c(Cn2ccc(C(F)(F)F)c(Oc3cc(Cl)cc(C#N)c3)c2=O)n[nH]c1=O", "note": "[Neat amorphous doravirine, 3-chloro-5-({1-[(4-methyl-5-oxo-4,5-dihydro-1H-1,2,4-triazol-3-yl)methyl]-2-oxo-4-(trifluoromethyl)-1,2-dihydropyridin-3-yl}oxy)benzonitrile]", "values": [{"measurement": "Time to crystallization on storage", "setting": "[2]", "result": "≤ 2", "unit": "weeks"}]}]}
